Data reported in patent publication US20240261443A1, “COMPOUNDS AND COMPOSITIONS USEFUL AS RADIOTRACERS FOR IMAGING OF REACTIVE OXIDATIVE SPECIES” (Wake Forest University Health Sciences, priority 2019, published 2024).

Experiments:
Type in all cases: in vivo
[1] = system: PC3 tumors; experiment: microPET imaging in PC3 tumor-bearing mice; conditions: ROI analysis
[2] = system: PC3 tumors; experiment: Standard biodistribution in PC3 tumor-bearing mice
Description: Athymic nude mice (Taconic Farms) were housed in a pathogen-free facility of the Animal Research Program at Wake Forest School of Medicine under a 12:12-h light/dark cycle and fed ad libitum. All animal experiments were conducted under IACUC approved protocols in compliance with the guidelines for the care and use of research animals established by Wake Forest Medical School Animal Studies Committee. PC3 cells (1×10^5 cells suspended in 10 μL matrigel) were implanted in the left flank of nude mice (25-30 g) as described previously. Mice bearing subcutaneous human PCa PC3 tumors were separated into two groups for baseline and blockade studies (n=3/group) and underwent microPET imaging under ˜1% isoflurane-oxygen anesthesia (Reuter et al., Oxidative stress, inflammation, and cancer: How are they linked? Free radical biology & medicine. 2010; 49:1603-16. doi:10.1016/j.freeradbiomed; Sosa et al., Oxidative stress and cancer: An overview. Ageing Research Reviews. 2013; 12:376-90; Singh et al., Silibinin suppresses in vivo growth of human prostate carcinoma PC-3 tumor xenograft. Carcinogenesis. 2007; 28:2567-74). Mice were intravenously injected with ˜100±10 μCi of [^18F]KS1 and 45 min later were scanned for 20 min using a TriFoil microPET scanner. KS1 (15 mg/kg) was used as a blocking agent and was injected 45 min before the radiotracer injection. Standard biodistribution studies were conducted in mice bearing PCa tumors to confirm in vivo binding of [^18F]KS1. Mice were intravenously injected with [^18F]KS1 (˜100 μCi), and euthanized after 30 min and 60 min of tracer injections (3 mice/time point). Samples of tumor, blood, brain, heart, lung, liver, spleen, pancreas, kidney, muscle and bone were harvested, weighed, and gamma counted with a standard dilution of the injectate (Chu et al., Development of a PET Radiotracer for Noninvasive Imaging of the Reactive Oxygen Species, Superoxide, in vivo. Organic & biomolecular chemistry. 2014; 12:4421-31; Sai et al., Radiolabeling and initial biological evaluation of [(18)F]KBM-1 for imaging RAR-α receptors in neuroblastoma. Bioorganic & medicinal chemistry letters. 2017; 27:1425-7; Kumar et al., Radiosynthesis and in Vivo Evaluation of [11C]MPC-6827, the First Brain Penetrant Microtubule PET Ligand. Journal of Medicinal Chemistry. 2018; 61:2118-23). The percentage of the injected dose per gram of tissue (% ID/g) was calculated.

[3] = system: normal organs; experiment: Toxicity observation in blocking studies, KS1 15 mg/kg; conditions: 15 mg/kg injected
Description: Athymic nude mice (Taconic Farms) were housed in a pathogen-free facility of the Animal Research Program at Wake Forest School of Medicine under a 12:12-h light/dark cycle and fed ad libitum. All animal experiments were conducted under IACUC approved protocols in compliance with the guidelines for the care and use of research animals established by Wake Forest Medical School Animal Studies Committee. PC3 cells (1×10^5 cells suspended in 10 μL matrigel) were implanted in the left flank of nude mice (25-30 g) as described previously. […] Samples of tumor, blood, brain, heart, lung, liver, spleen, pancreas, kidney, muscle and bone were harvested, weighed, and gamma counted with a standard dilution of the injectate (Chu et al., Development of a PET Radiotracer for Noninvasive Imaging of the Reactive Oxygen Species, Superoxide, in vivo. Organic & biomolecular chemistry. 2014; 12:4421-31; Sai et al., Radiolabeling and initial biological evaluation of [(18)F]KBM-1 for imaging RAR-α receptors in neuroblastoma. Bioorganic & medicinal chemistry letters. 2017; 27:1425-7; Kumar et al., Radiosynthesis and in Vivo Evaluation of [11C]MPC-6827, the First Brain Penetrant Microtubule PET Ligand. […] The percentage of the injected dose per gram of tissue (% ID/g) was calculated.

Row | Structure (SMILES) | tumor uptake with nonradioactive KS1 pretreatment, lower than baseline ([1]; KS1 15 mg/kg 45 min before tracer) | tumor uptake on mPET scans ([1]; baseline) | increased tumor uptake from 30 min to 60 min ([2]; 30 to 60 min post injection) | tumor: muscle (target: non-target) ratio ([2]; 30 min) | bone uptake ([2]; 30 min post injection) | tumor uptake ([2]; 30 min post injection) | tumor: muscle (target: non-target) ratio ([2]; 60 min) | bone uptake ([2]; 60 min post injection) | tumor uptake ([2]; 60 min post injection) | increase in the tumor: muscle ratio ([2]; from 30 min to 60 min) | toxicity in normal organs [3]
1 | O=C1O/C(=C/CCl)C(O)=C1OCc1ccc(OCC[18F])cc1 [[^18F]KS1] | ~3 fold | high tumor uptake | ~1.7 fold | 4.31 | 1.741±0.71 % ID/g | 4.23±0.531 % ID/g | 8.84 | 1.381±0.561 % ID/g | 6.81±0.33 % ID/g | > 50% | –
2 | O=C1O/C(=C/CCl)C(O)=C1OCc1ccc(OCCF)cc1 [KS1, (E)-5-(2-chloroethylidene)-3-(4-(2-fluoroethoxy)benzyloxy)-4-hydroxyfuran-2(5H)-one] | – | – | – | – | – | – | – | – | – | – | did not observe any toxicity
